ChEMBL document CHEMBL1201862, “PubChem BioAssay data set” (2004)
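48-hour exposure; five concentrations; linearly interpolated endpoints. GI50 marks 50% less growth.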 Calls of active or inactive are those of the source. Cut-off read from the data, not from the text of the source: active = GI50 up to about 1.1 µM and inactive = higher.

Columns and labels:
Experiment in all cases: NCI anticancer screen, dose series, 48 h
M14 = system: M14
A498 = system: A498
LOX IMVI = system: LOX IMVI
NCI-H460 = system: NCI-H460
SK-MEL-2 = system: SK-MEL-2
SR = system: SR
T47D = system: T47D
IGROV-1 = system: IGROV-1
MDA-MB-435 = system: MDA-MB-435
HOP-92 = system: HOP-92
HT-29 = system: HT-29
OVCAR-8 = system: OVCAR-8
MDA-N = system: MDA-N
A549 = system: A549
CAKI-1 = system: CAKI-1
K562 = system: K562
SF-295 = system: SF-295
TK-10 = system: TK-10
HOP-62 = system: HOP-62
Hs-578T = system: Hs-578T
HCT-116 = system: HCT-116
SF-268 = system: SF-268
KM12 = system: KM12
Malme-3M = system: Malme-3M
RXF 393 = system: RXF 393
SN12C = system: SN12C
786-0 = system: 786-0
SNB-19 = system: SNB-19
DU-145 = system: DU-145
HCC 2998 = system: HCC 2998
SK-MEL-5 = system: SK-MEL-5
BT-549 = system: BT-549
MDA-MB-231 = system: MDA-MB-231
NCI/ADR-RES = system: NCI/ADR-RES
PC-3 = system: PC-3
ACHN = system: ACHN
U-251 = system: U-251
SF-539 = system: SF-539
NCI-H522 = system: NCI-H522
OVCAR-4 = system: OVCAR-4
SK-MEL-28 = system: SK-MEL-28
UO-31 = system: UO-31
MCF7 = system: MCF7
UACC-257 = system: UACC-257
CCRF-CEM = system: CCRF-CEM
SNB-75 = system: SNB-75
MOLT-4 = system: MOLT-4
RPMI-8226 = system: RPMI-8226
SK-OV-3 = system: SK-OV-3
NCI-H23 = system: NCI-H23
UACC-62 = system: UACC-62
EKVX = system: EKVX
HCT-15 = system: HCT-15
HL-60 = system: HL-60
OVCAR-5 = system: OVCAR-5
COLO 205 = system: COLO 205
OVCAR-3 = system: OVCAR-3
SW-620 = system: SW-620
NCI-H226 = system: NCI-H226

CC[C@@H]1/C=C/C=C/C[C@H](C)[C@@H](O)[C@](C)(O)C(=O)[C@H](C)[C@@H](O)[C@H](C)C(=O)[C@H](C)[C@@H](O)[C@H](C)/C=C/C(=O)O[C@H]2[C@@H](C)[C@@H](CC1)O[C@]1(O[C@H](CC(C)O)[C@H](C)CC1=O)[C@@H]2C (stereo partly specified)
GI50 (M14): 3.14 µM (inactive) | GI50 (A498): 0.108 µM (active) | GI50 (LOX IMVI): 3.99 µM (inactive) | GI50 (NCI-H460): 1.04 µM (active) | GI50 (SK-MEL-2): 3.89 µM (inactive) | GI50 (SR): 4.13 µM (inactive) | GI50 (T47D): < 0.0025 µM (active) | GI50 (IGROV-1): 5.22 µM (inactive) | GI50 (MDA-MB-435): 3.26 µM (inactive) | GI50 (HOP-92): 4.23 µM (inactive) | GI50 (HT-29): 2.92 µM (inactive) | GI50 (OVCAR-8): < 0.0025 µM (active) | GI50 (MDA-N): 3.35 µM (inactive) | GI50 (A549): < 0.0025 µM (active) | GI50 (CAKI-1): 3.96 µM (inactive) | GI50 (K562): < 0.0025 µM (active) | GI50 (SF-295): < 0.0025 µM (active) | GI50 (TK-10): 1.22 µM (inactive) | GI50 (HOP-62): 3.18 µM (inactive) | GI50 (Hs-578T): 5.36 µM (inactive) | GI50 (HCT-116): 2.62 µM (inactive) | GI50 (SF-268): 3.71 µM (inactive) | GI50 (KM12): 3.81 µM (inactive) | GI50 (Malme-3M): 4.93 µM (inactive) | GI50 (RXF 393): 3.6 µM (inactive) | GI50 (SN12C): 3.74 µM (inactive) | GI50 (786-0): 4.79 µM (inactive) | GI50 (SNB-19): < 0.0025 µM (active) | GI50 (DU-145): 3.3 µM (inactive) | GI50 (HCC 2998): 3.53 µM (inactive) | GI50 (SK-MEL-5): < 0.0025 µM (active) | GI50 (BT-549): 3.75 µM (inactive) | GI50 (MDA-MB-231): 3.72 µM (inactive) | GI50 (NCI/ADR-RES): 0.598 µM (active) | GI50 (PC-3): < 0.0025 µM (active) | GI50 (ACHN): 2.65 µM (inactive) | GI50 (U-251): < 0.0025 µM (active) | GI50 (SF-539): 4.41 µM (inactive) | GI50 (NCI-H522): < 0.0025 µM (active) | GI50 (OVCAR-4): 2.56 µM (inactive) | GI50 (SK-MEL-28): 6 µM (inactive) | GI50 (UO-31): 2.81 µM (inactive) | GI50 (MCF7): < 0.0025 µM (active) | GI50 (UACC-257): < 0.0025 µM (active) | GI50 (CCRF-CEM): 3.56 µM (inactive) | GI50 (SNB-75): 0.871 µM (active) | GI50 (MOLT-4): 3.82 µM (inactive) | GI50 (RPMI-8226): < 0.0025 µM (active) | GI50 (SK-OV-3): 5.66 µM (inactive) | GI50 (NCI-H23): < 0.0025 µM (active) | GI50 (UACC-62): 3.22 µM (inactive) | GI50 (EKVX): < 0.0025 µM (active) | GI50 (HCT-15): 3.28 µM | GI50 (HL-60): 0.107 µM (active) | GI50 (OVCAR-5): 3.3 µM (inactive) | GI50 (COLO 205): < 0.0025 µM (active) | GI50 (OVCAR-3): 2.92 µM (inactive) | GI50 (SW-620): 5.57 µM (inactive)

C/N=c1\sc2c(n1C)C(=O)c1ccccc1C2=O
GI50 (M14): 1.5 µM (inactive) | GI50 (A498): 15.7 µM (inactive) | GI50 (LOX IMVI): 1.27 µM (inactive) | GI50 (NCI-H460): 2.62 µM (inactive) | GI50 (SK-MEL-2): 2.08 µM (inactive) | GI50 (SR): 3.75 µM (inactive) | GI50 (T47D): 3.78 µM (inactive) | GI50 (IGROV-1): 6.78 µM (inactive) | GI50 (MDA-MB-435): 0.192 µM (active) | GI50 (HOP-92): 10.3 µM (inactive) | GI50 (HT-29): 3.04 µM (inactive) | GI50 (OVCAR-8): 3.2 µM (inactive) | GI50 (MDA-N): 0.222 µM (active) | GI50 (A549): 1.93 µM (inactive) | GI50 (CAKI-1): 8.41 µM (inactive) | GI50 (K562): 3.37 µM (inactive) | GI50 (NCI-H226): 2.34 µM (inactive) | GI50 (SF-295): 1.54 µM (inactive) | GI50 (TK-10): 14.6 µM (inactive) | GI50 (HOP-62): 1.76 µM (inactive) | GI50 (Hs-578T): 2.39 µM (inactive) | GI50 (HCT-116): 2.85 µM (inactive) | GI50 (SF-268): 3.85 µM (inactive) | GI50 (KM12): 3.37 µM (inactive) | GI50 (Malme-3M): 0.331 µM (active) | GI50 (RXF 393): 3.08 µM (inactive) | GI50 (SN12C): 1.64 µM (inactive) | GI50 (786-0): 6.79 µM (inactive) | GI50 (SNB-19): 3.4 µM (inactive) | GI50 (DU-145): 1.66 µM (inactive) | GI50 (HCC 2998): 7.73 µM (inactive) | GI50 (SK-MEL-5): 1.27 µM (inactive) | GI50 (BT-549): 1.76 µM (inactive) | GI50 (MDA-MB-231): 12.2 µM (inactive) | GI50 (NCI/ADR-RES): 3.95 µM (inactive) | GI50 (PC-3): 3.96 µM (inactive) | GI50 (ACHN): 5.81 µM (inactive) | GI50 (U-251): 2.55 µM (inactive) | GI50 (SF-539): 2.01 µM (inactive) | GI50 (NCI-H522): 9.31 µM (inactive) | GI50 (OVCAR-4): 5.43 µM (inactive) | GI50 (SK-MEL-28): 1.96 µM (inactive) | GI50 (UO-31): 7.45 µM (inactive) | GI50 (MCF7): 1.65 µM (inactive) | GI50 (UACC-257): 1.53 µM (inactive) | GI50 (CCRF-CEM): 4.15 µM (inactive) | GI50 (SNB-75): 2.06 µM (inactive) | GI50 (MOLT-4): 5.15 µM (inactive) | GI50 (RPMI-8226): 4.14 µM (inactive) | GI50 (SK-OV-3): 31.2 µM (inactive) | GI50 (NCI-H23): 0.566 µM (active) | GI50 (UACC-62): 2.11 µM (inactive) | GI50 (EKVX): 10.7 µM (inactive) | GI50 (HCT-15): 2.03 µM | GI50 (OVCAR-5): 3.99 µM (inactive) | GI50 (COLO 205): 5.3 µM (inactive) | GI50 (OVCAR-3): 3.44 µM (inactive) | GI50 (SW-620): 2.09 µM (inactive)
